Read-outs that look alike come from different tables or passages of the source.
Experiments:
Y1R = target: T1, Y1R (Homo sapiens, UniProt P25929); experiment: Calcium flux assay (FLIPR), Y1R; format: cell-based
T1 sequence (P25929 1-384): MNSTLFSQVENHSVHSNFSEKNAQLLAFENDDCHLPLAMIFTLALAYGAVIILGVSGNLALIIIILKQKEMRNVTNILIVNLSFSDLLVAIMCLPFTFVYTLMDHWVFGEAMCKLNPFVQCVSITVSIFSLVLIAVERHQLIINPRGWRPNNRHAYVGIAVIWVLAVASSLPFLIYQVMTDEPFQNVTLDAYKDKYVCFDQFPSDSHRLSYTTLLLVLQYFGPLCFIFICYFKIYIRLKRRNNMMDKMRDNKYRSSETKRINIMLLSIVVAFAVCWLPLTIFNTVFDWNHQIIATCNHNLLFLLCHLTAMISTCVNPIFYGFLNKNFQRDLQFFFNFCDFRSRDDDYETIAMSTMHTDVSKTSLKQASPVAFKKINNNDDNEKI
Protocol: (§1) During the incubation, test compounds were prepared at 3.5× the desired concentration in HBSS (20 mM HEPES)/0.05% BSA/1% DMSO and transferred to a 384-well plate for use on FLIPR® (FILPR, Fluorescent Imaging Plate Reader, is a registered trademark of Molecular Devices Corp.).
(§2) After incubation, both the cell and compound plates were brought to the FLIPR® and 20 μL of the diluted compounds were transferred to the cell plates by the FLIPR®. During the assay, fluorescence readings were taken simultaneously from all 384 wells of the cell plate every 1.5 seconds. Five readings were taken to establish a stable baseline, and then 20 μl of sample was rapidly (30 μl/sec) and simultaneously added to each well of the cell plate. The fluorescence was continuously monitored before, during and after sample addition for a total elapsed time of 100 seconds. Responses (increase in peak fluorescence) in each well following addition was determined. The initial fluorescence reading from each well, prior to ligand stimulation, was used as a zero baseline value for the data from that well. The responses were expressed as a percentage of maximal response of the positive control.

Y4R = Y4R (Homo sapiens, UniProt P50391); experiment: Calcium flux assay (FLIPR), Y4R; format: cell-based
Y4R, sequence (P50391 whole entry): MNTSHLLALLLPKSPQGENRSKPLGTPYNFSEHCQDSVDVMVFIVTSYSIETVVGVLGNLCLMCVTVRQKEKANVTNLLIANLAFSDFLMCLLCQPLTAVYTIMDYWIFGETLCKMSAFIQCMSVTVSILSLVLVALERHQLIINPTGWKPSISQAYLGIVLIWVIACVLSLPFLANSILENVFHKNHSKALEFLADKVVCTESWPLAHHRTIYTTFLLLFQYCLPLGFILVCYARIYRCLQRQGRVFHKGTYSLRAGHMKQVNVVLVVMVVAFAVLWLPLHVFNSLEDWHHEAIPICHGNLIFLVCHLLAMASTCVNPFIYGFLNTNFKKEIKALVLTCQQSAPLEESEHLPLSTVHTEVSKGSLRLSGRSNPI
Protocol: as §1, §2

Y5R = target: T2, Y5R (Homo sapiens, UniProt Q15761); experiment: Calcium flux assay (FLIPR), Y5R; format: cell-based
T2 sequence (Q15761 1-445): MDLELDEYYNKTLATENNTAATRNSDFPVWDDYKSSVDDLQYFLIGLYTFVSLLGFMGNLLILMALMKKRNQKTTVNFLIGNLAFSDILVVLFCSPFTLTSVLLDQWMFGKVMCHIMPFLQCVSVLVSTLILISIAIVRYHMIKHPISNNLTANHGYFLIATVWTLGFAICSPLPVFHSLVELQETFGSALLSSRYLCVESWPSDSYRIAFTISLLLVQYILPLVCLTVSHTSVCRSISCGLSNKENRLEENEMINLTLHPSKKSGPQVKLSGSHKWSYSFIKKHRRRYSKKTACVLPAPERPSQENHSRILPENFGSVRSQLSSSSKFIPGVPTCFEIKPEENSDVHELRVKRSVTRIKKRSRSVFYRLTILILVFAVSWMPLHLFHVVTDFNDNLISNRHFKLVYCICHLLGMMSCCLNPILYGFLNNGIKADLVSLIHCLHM
Protocol: as §1, §2

hypothalamic slices = hypothalamic slices in vitro; cited from earlier work
male DIO rats = conditions: 5 and 10 mg/kg, q48 hr, s.c., 3-week treatment, male DIO rats (FIG. 23)
Protocol: Male Sprague Dawley rats (7 weeks old) were obtained from Charles River Laboratories (USA) and housed in a temperature and humidity controlled environment with a 12 h light:12 h dark cycle. The rats were given ad libitum access to a high fat chow diet (HFD; 60% of dietary kcal as fat, Research Diets D12492) and water throughout the study. Following 7 weeks on the HFD, rats were sorted by body weight and caged singly.
All data shown are the mean ± standard error (s.e.m.). Statistical evaluation of the data was carried out using one-way ANOVA, followed by Dunnett's test to determine where statistically significant differences existed between vehicle and drug treated groups. Differences were considered statistically significant at P<005. Data analysis was carried out with GraphPad software (GraphPad Prism).

female db/db mice [1] = conditions: acute, 1 and 10 mg/kg, s.c., 28 hr prior to OGTT, female db/db mice (FIG. 24)
Protocol: Female db/db mice (C57BL/KsJ-Lep^db/db, Jackson Laboratories, USA) were at 6 weeks of age when received. The mice were housed in a temperature and humidity controlled environment with a 12 h light: 12 h dark cycle, and given access to food (Purina rodent chow 5008) and water ad libitum. The mice (12-weeks old) were pre-bled 4 days prior to study, and those within a narrow range of fasted blood glucose levels were selected for the study in order to minimize variability between vehicle control and drug-treated groups. […] Blood samples were collected from tail clips following a 6 hr fast for determination of baseline values (t=0 min). The mice were then gavaged with an oral bolus of glucose (1 g/kg), and additional blood samples were collected at regular intervals (t=30, 60 and 120 min) for glucose measurement. […] The area under the curve (AUC0-120 min) was determined using the trapezoid method.
All data shown are the mean ± standard deviation (s.d.). Statistical evaluation of the data was carried out using one-way ANOVA, followed by Dunnett's test to determine where statistically significant differences existed between vehicle and drug treated groups. […] Data analysis was carried out with GraphPad software (GraphPad Prism).

female db/db mice [2] = conditions: q48 hr, s.c.
Protocol: Female db/db mice (C57BL/KsJ-Lep^db/db, Jackson Laboratories, USA) were at 6 weeks of age when received. The mice were housed in a temperature and humidity controlled environment with a 12 h light: 12 h dark cycle, and given access to food (Purina rodent chow 5008) and water ad libitum. The mice (9 week old) were pre-bled 4 days prior to drug treatment, and those within a narrow range of fasted blood glucose levels were selected for the study in order to minimize variability between vehicle control and drug-treated groups. […] Basal fasting (2 to 6 hr) blood glucose measurements were conducted weekly. On study day 20, an oral glucose tolerance test was performed following a 6 hr fast. Blood samples were collected from tail clips for determination of baseline values (t=0 min). The mice were then gavaged with an oral bolus of glucose (1 g/kg), and additional blood samples were collected at regular intervals (t=30, 60, and 120 min) for glucose measurement. […] The area under the curve (AUC0-120 min) was determined using the trapezoid method.
All data shown are the mean ± standard deviation (s.d.). Statistical evaluation of the data was carried out using one-way ANOVA, followed by Dunnett's test to determine where statistically significant differences existed between vehicle and drug treated groups. Differences were considered statistically significant at P<0.05. […]

Row | Compound | EC50 (Y1R) [µM] | EC50 (Y4R) [µM] | EC50 (Y5R) [µM] | other results
1 | CCCC[C@H](NC(=O)[C@@H](N)[C@@H](C)CC)C(=O)N1CCN(c2ccc3ncn(CC(=O)N[C@@H](CCCNC(=N)N)C(=O)N[C@@H](Cc4c[nH]cn4)C(=O)N[C@@H](Cc4ccc(O)cc4)C(=O)N[C@@H](CC(C)C)C(=O)N[C@@H](CC(N)=O)C(=O)N[C@@H](Cc4c[nH]c5ccccc45)C(=O)N[C@H](C(=O)N[C@H](C(=O)N[C@@H](CCCNC(=N)N)C(=O)N[C@@H](CCC(N)=O)C(=O)N(C)[C@@H](CCCNC(=N)N)C(=O)N[C@@H](Cc4ccc(O)cc4)C(N)=O)[C@@H](C)O)C(C)C)c(=O)c3c2)CC1 [Example 26] | > 5 | > 5 | > 5 | –
2 | N=C(N)NCCC[C@H](NC(=O)CC1(CC(=O)N2CCN(C3c4ccccc4NC(=O)c4ccccc43)CC2)CCCC1)C(=O)NCCn1c(=O)n(-c2ccccc2)n(-c2ccccc2)c1=O (stereo partly shown) [BIIE0246] | – | – | – | NPY release (hypothalamic slices): increases NPY release
3 | CC[C@H](C)[C@H](NC(=O)c1ccccc1)C(=O)N[C@@H](CCCCN)C(=O)N1CCN(c2ccc3ncn(CC(=O)N[C@@H](CCCNC(=N)N)C(=O)N[C@@H](Cc4c[nH]cn4)C(=O)N[C@@H](Cc4ccc(O)cc4)C(=O)N[C@@H](CC(C)C)C(=O)N[C@@H](CC(N)=O)C(=O)N[C@@H](Cc4c[nH]c5ccccc45)C(=O)N[C@H](C(=O)N[C@H](C(=O)N[C@@H](CCCNC(=N)N)C(=O)N[C@@H](CCC(N)=O)C(=O)N(C)[C@@H](CCCNC(=N)N)C(=O)N[C@@H](Cc4ccc(O)cc4)C(N)=O)[C@@H](C)O)C(C)C)c(=O)c3c2)CC1 [Example 32] | > 5 | > 5 | > 5 | –
4 | CC[C@H](C)[C@H](N)C(=O)N[C@@H](CCCCN)C(=O)N1CCN(c2ccc3ncn(CC(=O)N[C@@H](CCCNC(=N)N)C(=O)N[C@@H](Cc4c[nH]cn4)C(=O)N[C@@H](Cc4ccc(O)cc4)C(=O)N[C@@H](CC(C)C)C(=O)N[C@@H](CC(N)=O)C(=O)N[C@@H](Cc4c[nH]c5ccccc45)C(=O)N[C@H](C(=O)N[C@H](C(=O)N[C@@H](CCCNC(=N)N)C(=O)N[C@@H](CCC(N)=O)C(=O)N(C)[C@@H](CCCNC(=N)N)C(=O)N[C@@H](Cc4ccc(O)cc4)C(N)=O)[C@@H](C)O)C(C)C)c(=O)c3c2)CC1 [Example 25] | 0.298 | > 5 | > 5 | –
5 | CCCCC(=O)N[C@H](C(=O)N[C@@H](CCCCN)C(=O)N1CCN(c2ccc3ncn(CC(=O)N[C@@H](CCCNC(=N)N)C(=O)N[C@@H](Cc4c[nH]cn4)C(=O)N[C@@H](Cc4ccc(O)cc4)C(=O)N[C@@H](CC(C)C)C(=O)N[C@@H](CC(N)=O)C(=O)N[C@@H](Cc4c[nH]c5ccccc45)C(=O)N[C@H](C(=O)N[C@H](C(=O)N[C@@H](CCCNC(=N)N)C(=O)N[C@@H](CCC(N)=O)C(=O)N(C)[C@@H](CCCNC(=N)N)C(=O)N[C@@H](Cc4ccc(O)cc4)C(N)=O)[C@@H](C)O)C(C)C)c(=O)c3c2)CC1)[C@@H](C)CC [Example 29] | > 5 | > 5 | > 5 | –
6 | CC[C@H](C)[C@H](NC(C)=O)C(=O)N[C@@H](CCCCN)C(=O)N1CCN(c2ccc3ncn(CC(=O)N[C@@H](CCCNC(=N)N)C(=O)N[C@@H](Cc4c[nH]cn4)C(=O)N[C@@H](Cc4ccc(O)cc4)C(=O)N[C@@H](CC(C)C)C(=O)N[C@@H](CC(N)=O)C(=O)N[C@@H](Cc4c[nH]c5ccccc45)C(=O)N[C@H](C(=O)N[C@H](C(=O)N[C@@H](CCCNC(=N)N)C(=O)N[C@@H](CCC(N)=O)C(=O)N(C)[C@@H](CCCNC(=N)N)C(=O)N[C@@H](Cc4c(F)cc(O)cc4F)C(N)=O)[C@@H](C)O)C(C)C)c(=O)c3c2)CC1 [Example 27] | > 5 | > 5 | – | –
7 | CC[C@H](C)[C@H](NC(=O)C(C)(C)C)C(=O)N[C@@H](CCCCN)C(=O)N1CCN(c2ccc3ncn(CC(=O)N[C@@H](CCCNC(=N)N)C(=O)N[C@@H](Cc4c[nH]cn4)C(=O)N[C@@H](Cc4ccc(O)cc4)C(=O)N[C@@H](CC(C)C)C(=O)N[C@@H](CC(N)=O)C(=O)N[C@@H](Cc4c[nH]c5ccccc45)C(=O)N[C@H](C(=O)N[C@H](C(=O)N[C@@H](CCCNC(=N)N)C(=O)N[C@@H](CCC(N)=O)C(=O)N(C)[C@@H](CCCNC(=N)N)C(=O)N[C@@H](Cc4ccc(O)cc4)C(N)=O)[C@@H](C)O)C(C)C)c(=O)c3c2)CC1 [Example 30] | > 5 | > 5 | > 5 | –
8 | Ile((PEG-30,000)CH2CH2NHCOCH2CH2CO)(ε)Lys-Pqa-Arg-His-Tyr-Leu-Asn-Trp-Val-Thr-Arg-Gln-(NMe)Arg-Tyr-NH2 [Example 41] | – | – | – | body weight gain versus vehicle-treated animals (male DIO rats): significant decrease in body weight gain; glucose excursion in response to an oral glucose challenge (female db/db mice [1]): significantly decreased glucose excursion; basal blood glucose levels versus vehicle-treated animals (female db/db mice [2]; 1, 3 and 10 mg/kg, day 8, 15 and 21, female db/db mice (FIG. 25A)): reduced basal blood glucose levels; glucose excursion in response to an oral glucose challenge (female db/db mice [2]; day 20, 3 and 10 mg/kg, female db/db mice (FIG. 25B)): significantly decreased glucose excursion
9 | CC[C@H](C)[C@H](NC(=O)CC1CCCCC1)C(=O)N[C@@H](CCCCN)C(=O)N1CCN(c2ccc3ncn(CC(=O)N[C@@H](CCCNC(=N)N)C(=O)N[C@@H](Cc4c[nH]cn4)C(=O)N[C@@H](Cc4ccc(O)cc4)C(=O)N[C@@H](CC(C)C)C(=O)N[C@@H](CC(N)=O)C(=O)N[C@@H](Cc4c[nH]c5ccccc45)C(=O)N[C@H](C(=O)N[C@H](C(=O)N[C@@H](CCCNC(=N)N)C(=O)N[C@@H](CCC(N)=O)C(=O)N(C)[C@@H](CCCNC(=N)N)C(=O)N[C@@H](Cc4ccc(O)cc4)C(N)=O)[C@@H](C)O)C(C)C)c(=O)c3c2)CC1 [Example 31] | > 5 | > 5 | > 5 | –
